Data reported in PubChem BioAssay (NCI).
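How tested: cells in 96-well plates exposed to compound for 48 hours at five concentrations. GI50 = concentration required for 50% inhibition of growth. TGI: concentration producing complete growth inhibition.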

Legend:
Assay in all cases: DTP human tumour cell line panel, 48 h
RPMI-8226 leukemia = system: RPMI-8226 leukemia
SW-620 colon = system: SW-620 colon
UACC-257 melanoma = system: UACC-257 melanoma
COLO 205 colon = system: COLO 205 colon
UACC-62 melanoma = system: UACC-62 melanoma
SK-MEL-5 melanoma = system: SK-MEL-5 melanoma
SK-OV-3 ovarian = system: SK-OV-3 ovarian
MALME-3M melanoma = system: MALME-3M melanoma
SF-539 CNS = system: SF-539 CNS
HS 578T breast = system: HS 578T breast

In the case of `CN1CCC(=C(c2ccc(Cl)cc2)c2ccccn2)CC1`, the GI50 (RPMI-8226 leukemia) is reported as > 100 µM, the TGI (RPMI-8226 leukemia) is reported as > 100 µM and the GI50 (SW-620 colon) is reported as > 100 µM. The TGI (SW-620 colon) was > 100 µM, the GI50 (UACC-257 melanoma) was 21.5 µM and the TGI (UACC-257 melanoma) was 45.8 µM. The GI50 (COLO 205 colon) was 31.7 µM, the TGI (COLO 205 colon) was > 100 µM and the GI50 (UACC-62 melanoma) was 33.3 µM. For the same compound, the TGI (UACC-62 melanoma) was > 100 µM, the GI50 (SK-MEL-5 melanoma) was 50.7 µM and the TGI (SK-MEL-5 melanoma) was > 100 µM. The GI50 (SK-OV-3 ovarian) was 61.9 µM, the TGI (SK-OV-3 ovarian) was > 100 µM and the GI50 (MALME-3M melanoma) was 40.9 µM. The TGI (MALME-3M melanoma) was > 100 µM, the GI50 (SF-539 CNS) was 85.1 µM and the TGI (SF-539 CNS) was > 100 µM. For the same compound, the GI50 (HS 578T breast) was 44.9 µM and the TGI (HS 578T breast) was > 100 µM.

In the case of `O=C(O)C1CC[N-]CC1.O=C(O)C1CC[N-]CC1.[NH2-].[NH2-].[Pt+4]`, the GI50 (RPMI-8226 leukemia) is reported as > 100 µM, the TGI (RPMI-8226 leukemia) is reported as > 100 µM and the GI50 (SW-620 colon) is reported as > 100 µM. For the same compound, the TGI (SW-620 colon) was > 100 µM, the GI50 (UACC-257 melanoma) was > 100 µM and the TGI (UACC-257 melanoma) was > 100 µM. For the same compound, the GI50 (COLO 205 colon) was > 100 µM, the TGI (COLO 205 colon) was > 100 µM and the GI50 (UACC-62 melanoma) was > 100 µM. For the same compound, the TGI (UACC-62 melanoma) was > 100 µM, the GI50 (SK-MEL-5 melanoma) was > 100 µM and the TGI (SK-MEL-5 melanoma) was > 100 µM. The GI50 (SK-OV-3 ovarian) was > 100 µM, the TGI (SK-OV-3 ovarian) was > 100 µM and the GI50 (MALME-3M melanoma) was > 100 µM. For the same compound, the TGI (MALME-3M melanoma) was > 100 µM, the GI50 (SF-539 CNS) was > 100 µM and the TGI (SF-539 CNS) was > 100 µM. For the same compound, the GI50 (HS 578T breast) was > 100 µM and the TGI (HS 578T breast) was > 100 µM.

For `Cc1[nH]c(N)nc(=S)c1CCCNc1ccccc1`, the TGI (RPMI-8226 leukemia) was > 100 µM, the TGI (SW-620 colon) was > 100 µM and the TGI (UACC-257 melanoma) was > 100 µM. For the same compound, the TGI (COLO 205 colon) was 66.9 µM, the TGI (UACC-62 melanoma) was > 100 µM and the TGI (SK-MEL-5 melanoma) was 80 µM. For the same compound, the TGI (SK-OV-3 ovarian) was > 100 µM, the TGI (MALME-3M melanoma) was 99 µM and the TGI (SF-539 CNS) was > 100 µM. For the same compound, the TGI (HS 578T breast) was > 100 µM.

`Cc1cc2c(C(C)C)c(O)c(O)c(/C=N/O)c2c(O)c1-c1c(C)cc2c(C(C)C)c(O)c(O)c(/C=N/O)c2c1O` gave a GI50 (RPMI-8226 leukemia) of 2.44 µM, a TGI (RPMI-8226 leukemia) of 15.4 µM and a GI50 (SW-620 colon) of 2.94 µM. For the same compound, the TGI (SW-620 colon) was 12.3 µM, the GI50 (UACC-257 melanoma) was 2.97 µM and the TGI (UACC-257 melanoma) was 8.76 µM. For the same compound, the GI50 (COLO 205 colon) was 2.88 µM, the TGI (COLO 205 colon) was 9.72 µM and the GI50 (UACC-62 melanoma) was 2.15 µM. The TGI (UACC-62 melanoma) was 5.23 µM, the GI50 (SK-MEL-5 melanoma) was 1.43 µM and the TGI (SK-MEL-5 melanoma) was 3.82 µM. The GI50 (SK-OV-3 ovarian) was 3.6 µM, the TGI (SK-OV-3 ovarian) was 11.9 µM and the GI50 (MALME-3M melanoma) was 3.91 µM. For the same compound, the TGI (MALME-3M melanoma) was 20.4 µM, the GI50 (SF-539 CNS) was 1.85 µM and the TGI (SF-539 CNS) was 5.37 µM. It also gave a GI50 (HS 578T breast) of 2.03 µM and a TGI (HS 578T breast) of 27.4 µM.

Work on `Cn1ccc(S(=O)(=O)N2CCC[C@H](Nc3nccc(-c4c(-c5cccc(O)c5)nc5occn45)n3)C2)n1` yielded a GI50 (RPMI-8226 leukemia) of 14.9 µM, a TGI (RPMI-8226 leukemia) of 46.4 µM and a GI50 (SW-620 colon) of 15.9 µM. For the same compound, the TGI (SW-620 colon) was > 64.2 µM, the GI50 (UACC-257 melanoma) was 0.224 µM and the TGI (UACC-257 melanoma) was 90.7 µM. For the same compound, the GI50 (COLO 205 colon) was 0.0913 µM, the TGI (COLO 205 colon) was 28.6 µM and the GI50 (UACC-62 melanoma) was 0.0643 µM. The TGI (UACC-62 melanoma) was 3.4 µM, the GI50 (SK-MEL-5 melanoma) was 3.51 µM and the TGI (SK-MEL-5 melanoma) was 18.6 µM. For the same compound, the GI50 (SK-OV-3 ovarian) was 5.71 µM, the TGI (SK-OV-3 ovarian) was 49.6 µM and the GI50 (SF-539 CNS) was 17 µM. It also gave a TGI (SF-539 CNS) of 59.2 µM, a GI50 (HS 578T breast) of 7.57 µM and a TGI (HS 578T breast) of 93.5 µM.

Work on `C=CCc1cc(O)ccc1O` yielded a GI50 (RPMI-8226 leukemia) of 2.6 µM, a TGI (RPMI-8226 leukemia) of 34.1 µM and a GI50 (SW-620 colon) of 21.6 µM. For the same compound, the TGI (SW-620 colon) was 44.8 µM, the GI50 (UACC-257 melanoma) was > 100 µM and the TGI (UACC-257 melanoma) was > 100 µM. The GI50 (COLO 205 colon) was > 100 µM, the TGI (COLO 205 colon) was > 100 µM and the GI50 (UACC-62 melanoma) was 25.2 µM. The TGI (UACC-62 melanoma) was > 100 µM, the GI50 (SK-MEL-5 melanoma) was 43.3 µM and the TGI (SK-MEL-5 melanoma) was > 100 µM. The GI50 (SK-OV-3 ovarian) was 94.8 µM, the TGI (SK-OV-3 ovarian) was > 100 µM and the GI50 (MALME-3M melanoma) was 23.6 µM. For the same compound, the TGI (MALME-3M melanoma) was > 100 µM, the GI50 (SF-539 CNS) was 14.2 µM and the TGI (SF-539 CNS) was 70.2 µM. The GI50 (HS 578T breast) was 23.2 µM and the TGI (HS 578T breast) was > 100 µM.

In the case of `Cc1ccc2c(-c3ccnc(Nc4cccc(C(F)(F)F)c4)n3)c(-c3ccccc3)nn2n1`, the GI50 (RPMI-8226 leukemia) is reported as > 14.2 µM, the TGI (RPMI-8226 leukemia) is reported as > 25 µM and the GI50 (SW-620 colon) is reported as 7.81 µM. For the same compound, the TGI (SW-620 colon) was > 22.5 µM, the GI50 (UACC-257 melanoma) was 8.31 µM and the TGI (UACC-257 melanoma) was > 16.6 µM. The GI50 (COLO 205 colon) was 4.04 µM, the TGI (COLO 205 colon) was > 25 µM and the GI50 (UACC-62 melanoma) was 6.38 µM. For the same compound, the TGI (UACC-62 melanoma) was > 16.1 µM, the GI50 (SK-MEL-5 melanoma) was 4.05 µM and the TGI (SK-MEL-5 melanoma) was 7.94 µM. The GI50 (SK-OV-3 ovarian) was 0.597 µM, the TGI (SK-OV-3 ovarian) was > 15.8 µM and the GI50 (MALME-3M melanoma) was > 16.4 µM. The TGI (MALME-3M melanoma) was > 22.8 µM, the GI50 (SF-539 CNS) was 6.56 µM and the TGI (SF-539 CNS) was > 19.6 µM. The GI50 (HS 578T breast) was 7.13 µM and the TGI (HS 578T breast) was > 25 µM.

In the case of `COc1cc2c3c(n(CCCNCCCCN)c(=O)c2cc1OC)-c1cc2c(cc1C3=O)OCO2`, the GI50 (RPMI-8226 leukemia) is reported as 0.355 µM, the TGI (RPMI-8226 leukemia) is reported as 13.1 µM and the GI50 (SW-620 colon) is reported as 1.4 µM. It also gave a TGI (SW-620 colon) of 27.3 µM, a GI50 (UACC-257 melanoma) of 16.8 µM and a TGI (UACC-257 melanoma) of 54.7 µM. The GI50 (COLO 205 colon) was 6.02 µM, the TGI (COLO 205 colon) was > 46 µM and the GI50 (UACC-62 melanoma) was 2.1 µM. It also gave a TGI (UACC-62 melanoma) of 11.3 µM, a GI50 (SK-MEL-5 melanoma) of 2.95 µM and a TGI (SK-MEL-5 melanoma) of 19.2 µM. For the same compound, the GI50 (SK-OV-3 ovarian) was 9.15 µM, the TGI (SK-OV-3 ovarian) was > 46.6 µM and the GI50 (MALME-3M melanoma) was 1.66 µM. It also gave a TGI (MALME-3M melanoma) of 7.32 µM, a GI50 (SF-539 CNS) of 0.191 µM and a TGI (SF-539 CNS) of 2.74 µM. For the same compound, the GI50 (HS 578T breast) was 3.76 µM and the TGI (HS 578T breast) was 16.1 µM.

In the case of `NC(=O)NC(=O)Nc1ccc(Br)cc1`, the TGI (RPMI-8226 leukemia) is reported as > 35 µM, the TGI (SW-620 colon) is reported as > 29.4 µM and the TGI (UACC-257 melanoma) is reported as > 100 µM. For the same compound, the TGI (COLO 205 colon) was > 28.8 µM, the TGI (SK-MEL-5 melanoma) was > 18.6 µM and the TGI (SK-OV-3 ovarian) was > 100 µM. For the same compound, the TGI (MALME-3M melanoma) was > 27.9 µM, the TGI (SF-539 CNS) was > 100 µM and the TGI (HS 578T breast) was > 100 µM.

`CC(C)(Oc1cccc(N2CCC[C@@H](C(=O)N(Cc3ccc(-c4cn[nH]c4)cc3)C3CC3)C2)c1)C(=O)N1CCNCC1` was tested, and the GI50 (RPMI-8226 leukemia) was 7.11 µM, the TGI (RPMI-8226 leukemia) was 31.3 µM and the GI50 (SW-620 colon) was 15.5 µM. The TGI (SW-620 colon) was 31.5 µM, the GI50 (UACC-257 melanoma) was 12.2 µM and the TGI (UACC-257 melanoma) was 25.9 µM. It also gave a GI50 (COLO 205 colon) of 5.91 µM, a TGI (COLO 205 colon) of 20.1 µM and a GI50 (SK-MEL-5 melanoma) of 10.3 µM. The TGI (SK-MEL-5 melanoma) was 22.1 µM, the GI50 (SK-OV-3 ovarian) was 16.9 µM and the TGI (SK-OV-3 ovarian) was 33.6 µM. The GI50 (MALME-3M melanoma) was 11.8 µM, the TGI (MALME-3M melanoma) was 24.5 µM and the GI50 (SF-539 CNS) was 11.4 µM. The TGI (SF-539 CNS) was 24.2 µM, the GI50 (HS 578T breast) was 5.14 µM and the TGI (HS 578T breast) was 29.4 µM.

With `CCN(CC)Cc1cc(Nc2ccnc3ccc(OC)cc23)ccc1O` the GI50 (RPMI-8226 leukemia) was 3.97 µM, the TGI (RPMI-8226 leukemia) was 15.1 µM and the GI50 (SW-620 colon) was 3.6 µM. For the same compound, the TGI (SW-620 colon) was 19.7 µM, the GI50 (COLO 205 colon) was 1.63 µM and the TGI (COLO 205 colon) was 3.67 µM. For the same compound, the GI50 (UACC-62 melanoma) was 5.78 µM, the TGI (UACC-62 melanoma) was 20.9 µM and the GI50 (SK-MEL-5 melanoma) was 2.46 µM. It also gave a TGI (SK-MEL-5 melanoma) of 6.31 µM, a GI50 (SK-OV-3 ovarian) of 7.15 µM and a TGI (SK-OV-3 ovarian) of 34.5 µM. For the same compound, the GI50 (MALME-3M melanoma) was 3.85 µM, the TGI (MALME-3M melanoma) was 15.7 µM and the GI50 (SF-539 CNS) was 2.17 µM. For the same compound, the TGI (SF-539 CNS) was 4.84 µM, the GI50 (HS 578T breast) was 9.35 µM and the TGI (HS 578T breast) was 30.6 µM.
